Test system: micronucleated reticulocytes (MNPCE) in mouse peripheral blood
Conditions: in vivo, 50 mg/kg, 24 h
Procedure: 200 to 300 μl of a peripheral blood sample was collected from a mouse using orbital veinipuncture into a test tube containing heparin. The sample was kept at room temperature for analysis.
10 μl of the anticoagulated blood sample was diluted with 290 μl of the isotonic diluent of Example 1 in a test tube. 10 μl of anti CD71-FITC monoclonal antibody at saturating concentration was added into the diluted blood, and the test tube was vortexed and then incubated at room temperature for 30 minutes. 20 μl of the diluted sample containing anti CD71-FITC antibody was taken into a second test tube, and 400 μl of the permeation reagent of Example 1 was added and vortexed immediately. The formed permeation sample mixture was incubated at room temperature for 10 minutes. […]
The final sample mixture was analyzed on a FC500 MCL cytometer (Beckman Coulter, Inc., Fullerton, Calif.). […]
Both FL1 and FL4 were in a logarithmic scale. FL1 and FL4 were the fluorescent signals of the final sample mixture detected at 525 nm and 675 nm, respectively. […]
A mouse was treated with methyl methane sulfonate with a dosage of 50 mg/Kg 24 hours prior to the blood collection. The peripheral blood was collected and processed as described in Example 2, and the final sample mixture was analyzed on the same FC500 MCL cytometer with the identical instrument setting.

SMILES: COS(C)(=O)=O [methyl methane sulfonate]
- micronucleated reticulocytes (percentage of reticulocytes containing micronuclei): 1.30%

From patent US20090035758A1, “Method of Measurement of Micronucleated Erythrocyte Populations” (BECKMAN COULTER, INC., priority 2007, published 2009)
